# What was measured:
# [1] = Oral bioavailability in Sprague-Dawley rat at 10 mg/kg; assay type: ADME, organism-based; conditions: in vivo
# [2] = Activity at rat dorsal root ganglion in resting state with prepulse voltage of -100 mV assessed as blockade of TTx-resistant sodium current at 1 uM by whole-cell patch clamp technique; assay type: functional
# [3] = biological target: T1, Sodium channel protein type 10 subunit alpha (Homo sapiens, UniProt Q9Y5Y9); assay: Activity at human recombinant Nav 1.8 channel expressed in HEK293 cells in resting state with prepulse voltage of -100 mV assessed as blockade of TTx-resistant sodium current at 1 uM; assay type: cell-based
# [4] = biological target: T1, Sodium channel protein type 10 subunit alpha; assay: Activity at human recombinant Nav 1.8 channel expressed in HEK293 cells in resting state with prepulse voltage of -100 mV assessed as blockade of TTx-resistant sodium current at 0.1 uM; assay type: cell-based
# [5] = biological target: Sodium channel protein type 3 subunit alpha (Homo sapiens) (UniProt Q9NY46); assay: Inhibition of human Nav1.3 channel at 1 uM
# [6] = Activity at rat dorsal root ganglion in resting state with prepulse voltage of -100 mV assessed as blockade of TTx-resistant sodium current at 0.3 uM by whole-cell patch clamp technique; assay type: functional
# [7] = biological target: Sodium channel protein type 2 subunit alpha (Homo sapiens) (UniProt Q99250); assay: Inhibition of human Nav1.2 channel at 1 uM
# [8] = Activity at rat dorsal root ganglion in inactivated state with prepulse voltage of -40 mV assessed as blockade of TTx-resistant sodium current at 0.3 uM by whole-cell patch clamp technique; assay type: functional
# [9] = biological target: Sodium channel protein type 10 subunit alpha (Mus musculus, UniProt Q6QIY3); assay: Inhibition of mouse recombinant Nav 1.8 channel expressed in HEK293 cells by isotopic efflux assay; assay type: cell-based
# [10] = biological target: T1, Sodium channel protein type 10 subunit alpha; assay: Inhibition of human recombinant Nav 1.8 channel expressed in HEK293 cells at 1 uM; assay type: cell-based
# [11] = Activity at rat dorsal root ganglion in inactivated state with prepulse voltage of -40 mV assessed as blockade of TTx-resistant sodium current at 1 uM by whole-cell patch clamp technique; assay type: functional
# [12] = biological target: T1, Sodium channel protein type 10 subunit alpha; assay: Activity at human recombinant Nav 1.8 channel expressed in HEK293 cells in inactivated state with prepulse voltage of -40 mV assessed as blockade of TTx-resistant sodium current at 1 uM; assay type: cell-based
# [13] = Intrinsic clearance in Sprague-Dawley rat microsomes after 1 hr; assay type: ADME, Liver, Microsome
# [14] = biological target: T1, Sodium channel protein type 10 subunit alpha; assay: Activity at human recombinant Nav 1.8 channel expressed in HEK293 cells in inactivated state with prepulse voltage of -40 mV assessed as blockade of TTx-resistant sodium current at 0.1 uM; assay type: cell-based
# [15] = Aqueous solubility of the compound; assay type: physicochemical
# [16] = biological target: T1, Sodium channel protein type 10 subunit alpha; assay: Inhibition of human recombinant Nav 1.8 channel expressed in HEK293 cells at 0.1 uM; assay type: cell-based
# [17] = biological target: Voltage-gated inwardly rectifying potassium channel KCNH2 (Homo sapiens, UniProt Q12809); assay: Inhibition of hERG potassium channel expressed in CHO cells by isotope efflux assay
# [18] = biological target: T2, Nav1.5 (sodium channel protein type 5 subunit alpha) (Homo sapiens, UniProt Q14524); assay: (§1) Inhibition of human Nav1.5 channel at 1 uM; conditions: human
# [19] = Activity at rat dorsal root ganglion in resting state with prepulse voltage of -100 mV assessed as blockade of TTx-resistant sodium current at 0.1 uM by whole-cell patch clamp technique; assay type: functional
# [20] = biological target: Sodium channel protein type 3 subunit alpha (Homo sapiens) (UniProt Q9NY46); assay: Inhibition of human Nav1.3 channel at 10 uM
# [21] = biological target: T1, Sodium channel protein type 10 subunit alpha; assay: Activity at human recombinant Nav 1.8 channel expressed in HEK293 cells in resting state with prepulse voltage of -100 mV assessed as blockade of TTx-resistant sodium current at 0.003 uM; assay type: cell-based
# Translocator protein [22] = biological target: T3, Translocator protein (Homo sapiens, UniProt P30536); assay: Binding affinity to peripheral benzodiazepine receptor
# [23] = biological target: T2, Nav1.5 (sodium channel protein type 5 subunit alpha); assay: Inhibition of human Nav1.5 channel at 3 uM
# [24] = biological target: T4, Cholecystokinin receptor type A (Homo sapiens) (UniProt P32238); conditions: 10 uM
# T4 sequence (whole entry): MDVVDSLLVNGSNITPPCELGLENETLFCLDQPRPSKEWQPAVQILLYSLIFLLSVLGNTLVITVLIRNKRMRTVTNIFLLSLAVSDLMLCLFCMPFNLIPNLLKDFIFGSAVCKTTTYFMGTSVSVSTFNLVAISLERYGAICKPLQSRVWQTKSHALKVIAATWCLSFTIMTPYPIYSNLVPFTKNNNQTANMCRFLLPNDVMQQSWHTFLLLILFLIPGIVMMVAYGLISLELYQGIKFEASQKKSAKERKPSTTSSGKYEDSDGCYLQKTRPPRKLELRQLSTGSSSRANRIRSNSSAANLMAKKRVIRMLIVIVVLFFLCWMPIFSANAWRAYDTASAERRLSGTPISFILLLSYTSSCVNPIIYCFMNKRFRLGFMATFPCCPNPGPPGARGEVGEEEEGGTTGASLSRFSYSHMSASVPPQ
# D(1A) dopamine receptor [25] = biological target: T5, D(1A) dopamine receptor (Homo sapiens, UniProt P21728); conditions: 10 uM
# [26] = biological target: T1, Sodium channel protein type 10 subunit alpha; assay: Activity at human recombinant Nav 1.8 channel expressed in HEK293 cells in resting state with prepulse voltage of -100 mV assessed as blockade of TTx-resistant sodium current at 0.01 uM; assay type: cell-based
# [27] = Activity at rat dorsal root ganglion in inactivated state with prepulse voltage of -40 mV assessed as blockade of TTx-resistant sodium current at 0.1 uM by whole-cell patch clamp technique; assay type: functional
# [28] = biological target: Sodium channel protein type 3 subunit alpha (Homo sapiens) (UniProt Q9NY46); assay: Inhibition of human Nav1.3 channel at 3 uM
# [29] = biological target: Sodium channel protein type 9 subunit alpha (Homo sapiens) (UniProt Q15858); assay: Inhibition of human Nav1.7 channel at 3 uM
# [30] = Binding affinity to melatonin receptor 1
# Rattus norvegicus [31] = assay: Antinociceptive activity in ip dosed Sprague-Dawley rat assessed as reduction of CFA-induced thermal hyperalgesia; assay type: functional; design: Activity: scale not given: the % may be the effect or the level left
# Rattus norvegicus [32] = assay: Antinociceptive activity in ip dosed Sprague-Dawley rat assessed as attenuation of mechanical allodynia in chung model of neuropathic pain; assay type: functional
# [33] = biological target: T1, Sodium channel protein type 10 subunit alpha; assay: Inhibition of human recombinant Nav 1.8 channel expressed in HEK293 cells at 0.01 uM; assay type: cell-based
# [34] = biological target: T2, Nav1.5 (sodium channel protein type 5 subunit alpha); assay: Inhibition of human Nav1.5 channel at 10 uM
# Rattus norvegicus [35] = assay: Antinociceptive activity in ip dosed Sprague-Dawley rat assessed as reduction of mechanical allodynia in Bennett model of neuropathic pain; assay type: functional; design: Activity: scale not given: the % may be the effect or the level left
# [36] = biological target: T1, Sodium channel protein type 10 subunit alpha; assay: Activity at human recombinant Nav 1.8 channel expressed in HEK293 cells in inactivated state with prepulse voltage of -40 mV assessed as blockade of TTx-resistant sodium current at 0.01 uM; assay type: cell-based
# Translocator protein [37] = biological target: T3, Translocator protein; assay: Binding affinity to peripheral benzodiazepine receptor at 10 uM
# [38] = biological target: T6, 5-hydroxytryptamine receptor 2A (Homo sapiens, UniProt P28223); assay: Binding affinity to 5HT2A receptor
# [39] = Ratio of drug level in brain to plasma in Sprague-Dawley rat; assay type: ADME
# [40] = biological target: Sodium channel protein type 2 subunit alpha (Homo sapiens) (UniProt Q99250); assay: Inhibition of human Nav1.2 channel at 10 uM
# [41] = Volume of distribution at steady state in Sprague-Dawley rat; assay type: ADME, organism-based; conditions: in vivo, read-out: Vdss
# [42] = biological target: T6, 5-hydroxytryptamine receptor 2A; conditions: 10 uM
# [43] = biological target: T7, Cholecystokinin receptor type A (Homo sapiens, UniProt P32238); assay: Binding affinity to CCKAR
# T7 sequence (P32238 whole entry): T4 sequence (whole entry)
# [44] = biological target: Sodium channel protein type 9 subunit alpha (Homo sapiens) (UniProt Q15858); assay: Inhibition of human Nav1.7 channel at 10 uM
# [45] = biological target: Sodium channel protein type 2 subunit alpha (Homo sapiens) (UniProt Q99250); assay: Inhibition of human Nav1.2 channel at 3 uM
# D(1A) dopamine receptor [46] = biological target: T5, D(1A) dopamine receptor; assay: Binding affinity to dopamine D1 receptor
# [47] = biological target: T1, Sodium channel protein type 10 subunit alpha; assay: Activity at human recombinant Nav 1.8 channel expressed in HEK293 cells in inactivated state with prepulse voltage of -40 mV assessed as blockade of TTx-resistant sodium current at 0.003 uM; assay type: cell-based
# [48] = biological target: Sodium channel protein type 5 subunit alpha (Homo sapiens, UniProt Q14524); assay: as §1
# [49] = biological target: T1, Sodium channel protein type 10 subunit alpha; assay: Inhibition of human recombinant Nav 1.8 channel expressed in HEK293 cells at 0.003 uM; assay type: cell-based
# [50] = Half life in Sprague-Dawley rat; assay type: ADME, organism-based; conditions: in vivo
# [51] = Rattus norvegicus, Sprague-Dawley, ip
# T2 sequence (Q14524 whole entry): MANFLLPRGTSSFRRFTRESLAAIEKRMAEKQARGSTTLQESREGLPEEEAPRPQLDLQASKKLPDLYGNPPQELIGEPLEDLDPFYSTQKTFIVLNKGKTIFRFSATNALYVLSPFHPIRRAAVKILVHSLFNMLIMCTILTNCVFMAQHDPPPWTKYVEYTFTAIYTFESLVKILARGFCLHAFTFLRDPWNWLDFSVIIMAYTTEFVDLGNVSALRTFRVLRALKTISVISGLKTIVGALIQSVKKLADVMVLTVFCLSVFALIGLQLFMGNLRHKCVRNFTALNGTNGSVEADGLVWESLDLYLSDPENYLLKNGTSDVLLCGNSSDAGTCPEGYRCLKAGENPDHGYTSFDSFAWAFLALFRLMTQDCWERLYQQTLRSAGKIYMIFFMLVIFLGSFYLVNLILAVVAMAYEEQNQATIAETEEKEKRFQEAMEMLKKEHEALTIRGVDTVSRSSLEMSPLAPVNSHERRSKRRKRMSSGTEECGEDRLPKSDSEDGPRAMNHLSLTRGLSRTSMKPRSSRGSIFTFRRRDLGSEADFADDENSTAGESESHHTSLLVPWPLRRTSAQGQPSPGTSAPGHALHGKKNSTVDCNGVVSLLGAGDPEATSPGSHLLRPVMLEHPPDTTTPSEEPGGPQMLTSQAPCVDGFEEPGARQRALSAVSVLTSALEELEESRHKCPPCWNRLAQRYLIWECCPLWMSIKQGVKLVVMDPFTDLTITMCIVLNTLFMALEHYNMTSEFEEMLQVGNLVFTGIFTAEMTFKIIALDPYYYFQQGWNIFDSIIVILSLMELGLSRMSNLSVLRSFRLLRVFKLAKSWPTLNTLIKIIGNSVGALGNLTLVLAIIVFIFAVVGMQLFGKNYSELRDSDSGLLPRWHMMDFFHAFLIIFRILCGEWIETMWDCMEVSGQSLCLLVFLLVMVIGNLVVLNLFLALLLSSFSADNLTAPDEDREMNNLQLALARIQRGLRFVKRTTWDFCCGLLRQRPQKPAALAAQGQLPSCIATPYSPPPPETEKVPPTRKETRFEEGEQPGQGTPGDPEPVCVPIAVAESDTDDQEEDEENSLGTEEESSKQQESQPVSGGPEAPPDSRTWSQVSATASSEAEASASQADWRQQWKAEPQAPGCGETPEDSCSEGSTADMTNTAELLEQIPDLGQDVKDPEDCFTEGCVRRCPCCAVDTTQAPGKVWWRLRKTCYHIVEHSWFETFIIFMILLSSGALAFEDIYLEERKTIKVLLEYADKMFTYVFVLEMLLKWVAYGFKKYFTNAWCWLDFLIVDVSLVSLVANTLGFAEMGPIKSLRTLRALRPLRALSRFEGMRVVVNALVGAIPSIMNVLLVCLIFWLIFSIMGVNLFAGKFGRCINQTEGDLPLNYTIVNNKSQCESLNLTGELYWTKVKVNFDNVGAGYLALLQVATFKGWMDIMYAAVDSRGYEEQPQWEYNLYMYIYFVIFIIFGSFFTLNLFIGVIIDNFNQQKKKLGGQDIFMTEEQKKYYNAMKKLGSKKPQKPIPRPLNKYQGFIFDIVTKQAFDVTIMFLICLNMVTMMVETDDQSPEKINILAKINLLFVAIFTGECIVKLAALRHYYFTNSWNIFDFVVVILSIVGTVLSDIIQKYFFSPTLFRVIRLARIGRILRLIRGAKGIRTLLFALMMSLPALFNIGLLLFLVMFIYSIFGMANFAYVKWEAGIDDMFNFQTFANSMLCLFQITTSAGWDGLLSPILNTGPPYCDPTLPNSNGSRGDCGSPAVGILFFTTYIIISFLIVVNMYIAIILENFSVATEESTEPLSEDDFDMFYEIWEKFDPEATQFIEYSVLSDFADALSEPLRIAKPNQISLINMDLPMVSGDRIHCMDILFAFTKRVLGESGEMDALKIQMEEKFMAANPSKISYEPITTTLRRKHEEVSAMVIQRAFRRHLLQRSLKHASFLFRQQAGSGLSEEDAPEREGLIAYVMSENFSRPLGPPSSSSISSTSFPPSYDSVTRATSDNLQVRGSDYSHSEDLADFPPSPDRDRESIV
# Sequence of Sodium channel protein type 2 subunit alpha (Homo sapiens) (Q99250 whole entry, looked up): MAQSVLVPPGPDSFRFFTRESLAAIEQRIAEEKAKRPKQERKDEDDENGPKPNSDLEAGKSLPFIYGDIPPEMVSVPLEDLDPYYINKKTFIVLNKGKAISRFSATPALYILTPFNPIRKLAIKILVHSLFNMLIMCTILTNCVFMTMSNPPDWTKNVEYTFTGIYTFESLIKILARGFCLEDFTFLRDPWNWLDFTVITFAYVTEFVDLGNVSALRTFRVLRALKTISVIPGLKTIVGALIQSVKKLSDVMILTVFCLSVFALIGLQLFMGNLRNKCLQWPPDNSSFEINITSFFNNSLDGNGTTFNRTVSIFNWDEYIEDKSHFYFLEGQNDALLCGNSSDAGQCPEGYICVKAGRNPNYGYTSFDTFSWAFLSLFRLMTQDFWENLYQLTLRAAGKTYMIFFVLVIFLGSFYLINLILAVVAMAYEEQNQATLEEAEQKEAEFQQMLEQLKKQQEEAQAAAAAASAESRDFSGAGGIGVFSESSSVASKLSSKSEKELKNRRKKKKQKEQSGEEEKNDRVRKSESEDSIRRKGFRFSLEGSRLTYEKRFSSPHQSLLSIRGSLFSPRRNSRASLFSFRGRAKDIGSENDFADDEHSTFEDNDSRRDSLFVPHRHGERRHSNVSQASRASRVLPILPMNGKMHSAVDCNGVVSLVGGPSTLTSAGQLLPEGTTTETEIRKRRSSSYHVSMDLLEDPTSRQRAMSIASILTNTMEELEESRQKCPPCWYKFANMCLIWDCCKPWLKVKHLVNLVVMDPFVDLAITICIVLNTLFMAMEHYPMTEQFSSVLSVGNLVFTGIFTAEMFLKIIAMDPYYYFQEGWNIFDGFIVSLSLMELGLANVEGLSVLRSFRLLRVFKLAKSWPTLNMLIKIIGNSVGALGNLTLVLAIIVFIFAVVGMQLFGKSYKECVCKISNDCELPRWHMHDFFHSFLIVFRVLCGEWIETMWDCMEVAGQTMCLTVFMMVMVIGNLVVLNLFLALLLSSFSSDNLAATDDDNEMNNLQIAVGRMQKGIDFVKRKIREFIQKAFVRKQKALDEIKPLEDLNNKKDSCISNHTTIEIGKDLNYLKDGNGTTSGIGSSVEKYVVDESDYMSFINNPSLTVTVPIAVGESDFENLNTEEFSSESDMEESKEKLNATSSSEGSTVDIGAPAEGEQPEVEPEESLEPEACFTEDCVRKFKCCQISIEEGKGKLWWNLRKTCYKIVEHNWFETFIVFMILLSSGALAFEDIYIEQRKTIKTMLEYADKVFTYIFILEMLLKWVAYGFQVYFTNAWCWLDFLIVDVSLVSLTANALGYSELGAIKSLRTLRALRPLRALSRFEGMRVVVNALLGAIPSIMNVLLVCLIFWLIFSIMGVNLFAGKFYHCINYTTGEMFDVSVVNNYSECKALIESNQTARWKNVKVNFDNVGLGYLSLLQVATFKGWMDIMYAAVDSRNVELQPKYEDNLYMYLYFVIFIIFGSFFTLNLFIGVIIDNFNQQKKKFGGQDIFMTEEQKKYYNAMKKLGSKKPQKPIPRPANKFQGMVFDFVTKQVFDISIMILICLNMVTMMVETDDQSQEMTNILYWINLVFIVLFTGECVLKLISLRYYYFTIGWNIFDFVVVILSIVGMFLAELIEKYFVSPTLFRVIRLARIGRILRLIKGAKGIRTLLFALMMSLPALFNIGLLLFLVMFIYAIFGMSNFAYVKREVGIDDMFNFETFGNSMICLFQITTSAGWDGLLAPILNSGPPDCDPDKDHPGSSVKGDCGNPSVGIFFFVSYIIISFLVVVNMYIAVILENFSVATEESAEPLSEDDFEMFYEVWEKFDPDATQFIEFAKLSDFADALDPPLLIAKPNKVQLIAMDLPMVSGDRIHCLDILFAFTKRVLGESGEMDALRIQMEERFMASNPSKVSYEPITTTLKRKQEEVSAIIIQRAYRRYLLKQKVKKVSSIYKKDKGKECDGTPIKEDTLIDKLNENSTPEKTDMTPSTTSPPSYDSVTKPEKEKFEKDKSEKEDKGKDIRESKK
# T5 sequence (P21728 whole entry): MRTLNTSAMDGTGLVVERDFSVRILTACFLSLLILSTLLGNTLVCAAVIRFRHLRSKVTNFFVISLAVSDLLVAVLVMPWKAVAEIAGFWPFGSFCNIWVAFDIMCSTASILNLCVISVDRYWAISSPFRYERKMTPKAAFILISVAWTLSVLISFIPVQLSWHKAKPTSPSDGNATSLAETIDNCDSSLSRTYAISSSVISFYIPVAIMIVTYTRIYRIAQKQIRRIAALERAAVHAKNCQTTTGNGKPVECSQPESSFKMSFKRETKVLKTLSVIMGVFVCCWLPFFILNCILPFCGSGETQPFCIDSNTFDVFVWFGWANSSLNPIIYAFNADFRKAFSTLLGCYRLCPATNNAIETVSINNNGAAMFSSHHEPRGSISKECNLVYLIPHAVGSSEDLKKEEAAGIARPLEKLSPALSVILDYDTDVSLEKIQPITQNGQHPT
# T6 sequence (P28223 whole entry): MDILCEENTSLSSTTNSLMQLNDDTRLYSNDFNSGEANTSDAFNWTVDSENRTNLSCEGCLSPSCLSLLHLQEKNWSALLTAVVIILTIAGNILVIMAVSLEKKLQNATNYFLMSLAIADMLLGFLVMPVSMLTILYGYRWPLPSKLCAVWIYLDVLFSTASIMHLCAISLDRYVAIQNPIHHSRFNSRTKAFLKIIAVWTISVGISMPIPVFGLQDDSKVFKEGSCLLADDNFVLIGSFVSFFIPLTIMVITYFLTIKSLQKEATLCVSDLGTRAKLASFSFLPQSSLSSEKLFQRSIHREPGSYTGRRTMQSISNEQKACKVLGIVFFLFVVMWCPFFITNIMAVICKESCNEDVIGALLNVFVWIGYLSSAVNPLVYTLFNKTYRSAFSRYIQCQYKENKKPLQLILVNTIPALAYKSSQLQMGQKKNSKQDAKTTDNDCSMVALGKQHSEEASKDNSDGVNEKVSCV
# T3 sequence (P30536 whole entry): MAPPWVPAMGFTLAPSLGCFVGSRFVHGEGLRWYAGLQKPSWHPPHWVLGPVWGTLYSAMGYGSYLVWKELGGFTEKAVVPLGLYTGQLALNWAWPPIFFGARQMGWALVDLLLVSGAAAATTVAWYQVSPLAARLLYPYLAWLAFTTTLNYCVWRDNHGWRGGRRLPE
compound,measurement,setting,value
Cc1cccc(NC(=N)c2ccc(-c3ccc(Cl)cc3)o2)c1.Cl,bioavailability,[1],67%
same,inhibition at 1 µM,[2],10%
same,inhibition,[3],5%
same,inhibition,[4],1%
same,inhibition,[5],36%
same,inhibition at 0.3 µM,[6],2%
same,inhibition,[7],52%
same,inhibition at 0.3 µM,[8],45%
same,IC50,[9],1.9 µM
same,inhibition,[10],75%
same,inhibition at 1 µM,[11],60%
same,inhibition,[12],75%
same,microsomal CLint,[13],220 µL/min/mg
same,inhibition,[14],46%
same,solubility,[15],250 µg/mL
same,inhibition,[16],46%
same,IC50,[17],2.1 µM
same,inhibition at 1 µM,[18],56%
COc1cc(NC(=O)c2ccc(-c3ccc(Cl)cc3)o2)cc(OC)c1,inhibition at 0.1 µM,[19],14%
same,inhibition,[20],70%
same,inhibition,[21],5%
same,IC50,Translocator protein [22],> 2 µM
same,inhibition at 3 µM,[23],44%
same,inhibition,[24],> 60%
same,inhibition,D(1A) dopamine receptor [25],> 60%
same,inhibition,[26],19%
same,inhibition at 0.1 µM,[27],48%
same,inhibition,[28],52%
same,inhibition,[29],42%
same,inhibition at 0.3 µM,[6],48%
same,IC50,[30],> 2 µM
same,Activity,Rattus norvegicus [31],64%
same,ED50,Rattus norvegicus [31]; [51],41 mg/kg
same,Activity,Rattus norvegicus [32],70%
same,ED50,Rattus norvegicus [32]; [51],47 mg/kg
same,inhibition at 0.3 µM,[8],71%
same,IC50,[9],0.85 µM
same,inhibition,[33],59%
same,inhibition at 10 µM,[34],49%
same,Activity,Rattus norvegicus [35],56%
same,ED50,Rattus norvegicus [35]; [51],85 mg/kg
same,inhibition,[36],59%
same,inhibition,Translocator protein [37],> 60%
same,IC50,[38],> 2 µM
same,Kp,[39],1.1
same,inhibition,[40],53%
same,Vd,[41],6.4 L/kg
same,microsomal CLint,[13],140 µL/min/mg
same,inhibition,[42],> 60%
same,IC50,[43],> 2 µM
same,inhibition,[44],54%
same,inhibition,[45],41%
same,IC50,D(1A) dopamine receptor [46],> 2 µM
same,inhibition,[47],30%
same,IC50,[48],> 2 µM
same,inhibition,[49],30%
same,half-life,[50],7.3 h

# From ChEMBL document CHEMBL1140726, “Discovery and biological evaluation of 5-aryl-2-furfuramides, potent and selective blockers of the Nav1.8 sodium channel with efficacy in models of neuropathic and inflammatory pain” (J Med Chem, 2008)
